Assay results taken from patent US20220183294A1, “PESTICIDALLY ACTIVE AZOLE AMIDE COMPOUNDS” (SYNGENTA CROP PROTECTION AG, priority 2019, published 2022).

Legend:
[1] = tested on: Diabrotica balteata (Corn root worm); test: Example B1: Diabrotica balteata (Corn root worm), sprayed maize sprouts; format: in vivo; conditions: 96 h, application rate 200 ppm, L2 larvae, 4 days after infestation, read-out: control in at least one of the two categories (mortality or growth inhibition)
Experimental: Example B1: Diabrotica balteata (Corn root worm)
Maize sprouts placed onto an agar layer in 24-well microtiter plates were treated with aqueous test solutions prepared from 10′000 ppm DMSO stock solutions by spraying. After drying, the plates were infested with L2 larvae (6 to 10 per well). The samples were assessed for mortality and growth inhibition in comparison to untreated samples 4 days after infestation.
(§1) The following compounds gave an effect of at least 80% control in at least one of the two categories (mortality or growth inhibition) at an application rate of 200 ppm: […]

[2] = tested on: Euschistus heros (Neotropical Brown Stink Bug); test: Example B2: Euschistus heros (Neotropical Brown Stink Bug), sprayed soybean leaves; format: in vivo; conditions: 120 h, application rate 200 ppm, N2 nymphs, 5 days after infestation, read-out: effect in at least one of the two categories (mortality or growth inhibition)
Experimental: Example B2: Euschistus heros (Neotropical Brown Stink Bug)
Soybean leaves on agar in 24-well microtiter plates were sprayed with aqueous test solutions prepared from 10′000 ppm DMSO stock solutions. After drying the leaves were infested with N2 nymphs. The samples were assessed for mortality and growth inhibition in comparison to untreated samples 5 days after infestation.
The following compounds gave an effect of at least 80% in at least one of the two categories (mortality or growth inhibition) at an application rate of 200 ppm: […]

[3] = tested on: Chilo suppressalis (Striped rice stemborer); test: Example B4: Chilo suppressalis (Striped rice stemborer), artificial diet; format: in vivo; conditions: 144 h, application rate 200 ppm, L2 larvae, 6 days after infestation, read-out: control in at least one of the three categories (mortality, anti-feedant effect, or growth inhibition)
Experimental: Example B4: Chilo suppressalis (Striped rice stemborer) 24-well microtiter plates with artificial diet were treated with aqueous test solutions prepared from 10′000 ppm DMSO stock solutions by pipetting. After drying, the plates were infested with L2 larvae (6-8 per well). The samples were assessed for mortality, anti-feeding effect, and growth inhibition in comparison to untreated samples 6 days after infestation. Control of Chilo suppressalis by a test sample is given when at least one of the categories mortality, anti-feedant effect, and growth inhibition is higher than the untreated sample.

[4] = tested on: Plutella xylostella (Diamond back moth); test: Example B5: Plutella xylostella (Diamond back moth), artificial diet, 24-well; format: in vivo; conditions: 192 h, application rate 200 ppm, eggs, 8 days after infestation, read-out: control in at least one of the two categories (mortality or growth inhibition)
Experimental: Example B5: Plutella xylostella (Diamond back moth)
24-well microtiter plates with artificial diet were treated with aqueous test solutions prepared from 10′000 ppm DMSO stock solutions by pipetting. After drying, Plutella eggs were pipetted through a plastic stencil onto a gel blotting paper and the plate was closed with it. The samples were assessed for mortality and growth inhibition in comparison to untreated samples 8 days after infestation.
as §1

[5] = tested on: Spodoptera littoralis (Egyptian cotton leaf worm); test: Example B9: Spodoptera littoralis (Egyptian cotton leaf worm), sprayed cotton leaf discs; format: in vivo; conditions: foliar, 72 h, application rate 200 ppm, L1 larvae, 3 days after infestation, read-out: control in at least one of the three categories (mortality, anti-feedant effect, or growth inhibition)
Experimental: Example B9: Spodoptera littoralis (Egyptian cotton leaf worm)
Cotton leaf discs were placed onto agar in 24-well microtiter plates and sprayed with aqueous test solutions prepared from 10′000 ppm DMSO stock solutions. After drying the leaf discs were infested with five L1 larvae. The samples were assessed for mortality, anti-feeding effect, and growth inhibition in comparison to untreated samples 3 days after infestation. Control of Spodoptera littoralis by a test sample is given when at least one of the categories mortality, anti-feedant effect, and growth inhibition is higher than the untreated sample.

[6] = tested on: Plutella xylostella (Diamondback Moth); test: Example B13: Plutella xylostella (Diamondback Moth), artificial diet, 96-well; format: in vivo; conditions: 216 h, application rate 500 ppm, eggs/L1 larvae, 9 days after infestation
Experimental: Example B13: Plutella xylostella (Diamondback Moth)
96-well microtiter plates containing artificial diet were treated with aqueous test solutions, prepared from 10′000 ppm DMSO stock solutions, by a liquid handling robot. After drying, eggs (-30 per well) were infested onto a netted lid which was suspended above the diet. The eggs hatch and L1 larvae move down to the diet. The samples were assessed for mortality 9 days after infestation.
The following compounds gave an effect of at least 80% mortality at an application rate of 500 ppm: […]

melting point [°C] | SMILES | percent control (mortality or growth inhibition) at 200 ppm [1] [%] | percent effect (mortality or growth inhibition) at 200 ppm [2] [%] | percent control (mortality, anti-feedant effect or growth inhibition) at 200 ppm [3] [%] | percent control (mortality or growth inhibition) at 200 ppm [4] [%] | percent control (mortality, anti-feedant effect or growth inhibition) at 200 ppm [5] [%] | mortality at 500 ppm [6] [%]
– | CC(NC(=O)c1cc(C2CC2C(F)(F)F)cc(C(F)(F)F)c1)c1ncnn1-c1ncc(OCC(F)F)cn1 (centres unmarked) [P12] | ≥ 80 | ≥ 80 | ≥ 80 | ≥ 80 | ≥ 80 | –
105 to 110 | CC(NC(=O)c1cc(C(F)(F)F)cc(C(F)(F)C2CC2)c1)c1ncnn1-c1ccc(OCC(F)F)cn1 (centres unmarked) [P36, 3-[cyclopropyl(difluoro)methyl]-N-[1-[2-[5-(2,2-difluoroethoxy)-2-pyridyl]-1,2,4-triazol-3-yl]ethyl]-5-(trifluoromethyl) benzamide] | – | – | – | – | – | –
– | CC(NC(=O)c1cc(C2CC2)cc(C(F)(F)F)c1)c1ncnn1-c1ccc(C#N)cn1 (centres unmarked) [P14, N-[1-[2-(5-cyano-2-pyridyl)-1,2,4-triazol-3-yl]ethyl]-3-cyclopropyl-5-(trifluoromethyl)benzamide] | ≥ 80 | – | ≥ 80 | ≥ 80 | ≥ 80 | ≥ 80
– | CC(NC(=O)c1cc(C(F)(F)F)cc(C(F)(F)C2CC2)c1)c1ncnn1-c1ncc(OC(F)F)cn1 (centres unmarked) [P6, 3-[cyclopropyl(difluoro)methyl]-N-[1-[2-[5-(difluoromethoxy)pyrimidin-2-yl]-1,2,4-triazol-3-yl]ethyl]-5-(trifluoromethyl) benzamide] | ≥ 80 | ≥ 80 | ≥ 80 | ≥ 80 | ≥ 80 | ≥ 80
– | CC(NC(=O)c1cc(C(F)(F)F)cc(S(=O)(=O)C(F)(F)F)c1)c1ncnn1-c1ccc(OC(F)F)cn1 (centres unmarked) [P28, N-[1-[2-[5-(difluoromethoxy)-2-pyridyl]-1,2,4-triazol-3-yl]ethyl]-3-(trifluoromethyl)-5-(trifluoromethylsulfonyl) benzamide] | – | – | ≥ 80 | ≥ 80 | ≥ 80 | ≥ 80
70 to 75 | CC(NC(=O)c1cc(C(F)(F)F)cc(C2(C#N)CC2)c1)c1ncnn1-c1ccc(OCC(F)(F)F)cn1 (centres unmarked) [P34, 3-(1-cyanocyclopropyl)-N-[1-[2-[5-(2,2,2-trifluoroethoxy)-2-pyridyl]-1,2,4-triazol-3-yl]ethyl]-5-(trifluoromethyl) benzamide] | – | – | – | – | – | –
– | CC(NC(=O)c1cc(C(F)(F)F)cc(S(=O)(=O)C(F)(F)F)c1)c1ncnn1-c1ncc(OC(F)F)cn1 (centres unmarked) [P27, N-[1-[2-[5-(difluoromethoxy)pyrimidin-2-yl]-1,2,4-triazol-3-yl]ethyl]-3-(trifluoromethyl)-5-(trifluoromethylsulfonyl) benzamide] | – | – | ≥ 80 | ≥ 80 | ≥ 80 | ≥ 80
– | CC(NC(=O)c1cc(C(F)(F)F)cc(S(=O)(=O)C(F)(F)F)c1)c1ncnn1-c1ncc(OCC(F)(F)F)cn1 (centres unmarked) [P29, N-[1-[2-[5-(2,2,2-trifluoroethoxy)pyrimidin-2-yl]-1,2,4-triazol-3-yl]ethyl]-3-(trifluoromethyl)-5-(trifluoromethylsulfonyl) benzamide] | – | – | ≥ 80 | ≥ 80 | – | ≥ 80
– | CC(NC(=O)c1cc(C2CC2)nc(C(F)(F)F)c1)c1ncnn1-c1ncc(OC(F)F)cn1 (centres unmarked) [P9, 2-cyclopropyl-N-[1-[2-[5-(difluoromethoxy)pyrimidin-2-yl]-1,2,4-triazol-3-yl]ethyl]-6-(trifluoromethyl) pyridine-4-carboxamide] | ≥ 80 | ≥ 80 | ≥ 80 | ≥ 80 | ≥ 80 | –
48 to 52 | CC(NC(=O)c1cc(C(F)(F)F)cc(C(F)(F)C2CC2)c1)c1ncnn1-c1ccc(OCC(F)(F)F)cn1 (centres unmarked) [P35, 3-[cyclopropyl(difluoro)methyl]-N-[1-[2-[5-(2,2,2-trifluoroethoxy)-2-pyridyl]-1,2,4-triazol-3-yl]ethyl]-5-(trifluoromethyl) benzamide] | – | – | – | – | – | –
– | CC(NC(=O)c1cc(C(F)(F)F)nc(C2(C#N)CC2)c1)c1ncnn1-c1ccc(C#N)cn1 (centres unmarked) [P3, 2-(1-cyanocyclopropyl)-N-[1-[2-(5-cyano-2-pyridyl)-1,2,4-triazol-3-yl]ethyl]-6-(trifluoromethyl)pyridine-4-carboxamide] | ≥ 80 | – | ≥ 80 | ≥ 80 | ≥ 80 | ≥ 80
– | CC(NC(=O)c1cc(C2CC2)cc(C(F)(F)F)c1)c1ncnn1-c1ncc(OC(F)F)cn1 (centres unmarked) [P21, 3-cyclopropyl-N-[1-[2-[5-(difluoromethoxy)pyrimidin-2-yl]-1,2,4-triazol-3-yl]ethyl]-5-(trifluoromethyl) benzamide] | ≥ 80 | ≥ 80 | ≥ 80 | ≥ 80 | ≥ 80 | –
170 to 175 | CC(NC(=O)c1cc(C(F)(F)F)nc(C2(C#N)CC2)c1)c1ncnn1-c1ccc(OCC(F)(F)F)cn1 (centres unmarked) [P33, 2-(1-cyanocyclopropyl)-N-[1-[2-[5-(2,2,2-trifluoroethoxy)-2-pyridyl]-1,2,4-triazol-3-yl]ethyl]-6-(trifluoromethyl) pyridine-4-carboxamide] | – | – | – | – | – | –
125 to 130 | CC(NC(=O)c1cc(C(F)(F)F)cc(S(=O)(=O)C(F)(F)F)c1)c1ncnn1-c1ccc(OCC(F)(F)F)cn1 (centres unmarked) [P32, N-[1-[2-[5-(2,2,2-trifluoroethoxy)-2-pyridyl]-1,2,4-triazol-3-yl]ethyl]-3-(trifluoromethyl)-5-(trifluoromethylsulfonyl) benzamide] | – | – | – | – | – | –
